“Also recorded” adds a separate entry of the source.
How the values were obtained:
[1] = 6-week study: treatment toxicity (body mass, blood, organ mass, survival)
Description: Animals were monitored daily for GI tract upset such as diarrhea and weekly for more severe toxicity manifestations such as weight loss.
As one of the major toxicities associated with 5-FU treatment is depression of the bone marrow and subsequent drop in white blood cells it was necessary to assess any treatment associated blood toxicity. Upon anaesthetizing the animals, blood was collected from the heart or great vessels using a needle and syringe. Estimation of white blood cell number by making a 1/50 dilution of blood in mouse tenacity saline (M) and counting it on a haemocytometer. A differential blood count was performed by counting-neutrophils, lymphocytes, and erythrocytes. The total estimation of blood cell sub-populations was compared to published data for mouse blood.
The mass of each organ was calculated as a % of the overall net body weight, and compared to the organ masses of the saline only group (Group 1).

[2] = tested on: MDA-MB-468 human breast carcinoma xenografts; assay: 6-week efficacy study of HA ± 5-FU in nude mouse xenografts; type: in vivo
Method: From the results in Example 2 the carcinoma cell line MDA-MB-468 was selected as the cancer cell inoculant for the generation of any nude mouse human tumour xenografts. Cells were routinely grown and subcultured as a previously described in Example 2. For injection into mice, cells were grown to 100% confluency, trypsinised in 0.025% trypsin/0.01% EDTA solution, washed twice by centrifugation in a Beckman TJ-6 bench centrifuge at 400 gav for 10 min, counted using a Model-ZM Coulter counter and resuspended in serum-free Leibovitz L-15 medium at 1×10^8 cells/ml. […]
Individual injections of 5-FU were prepared according to individual mouse masses, with the aim of delivering 30 mg/kg 5-FU in 50 μl (equivalent to human therapeutic dose of 10.5 mg/kg for a mean body weight of 60 kg; Inaba et al, 1988). […] With this quantity of HA injected into the body, saturation kinetics would be observed for the period of the experimentation (Fraser et al, 1983). […]
Animals were weighed and tumour volumes measured on the day of treatment application for long term study. In the 6-week study animals were weighed and tumour volumes measured on a daily basis. […]
Tumour volume was monitored on a daily or weekly basis by caliper measurements and tumour volume calculated as previously described.

[3] = tested on: MDA-MB-435; assay: Breast cancer cell count assay (Coulter counter), HA ± adriamycin; type: cell-based, human
Method: Cell lines MDA-MB-468, MDA-MB-435 and MDA-MB-231 were routinely grown and subcultured as a monolayer in 175 cm^2 culture flasks in Leibovitz L-15 Medium supplemented with 10% Foetal calf serum (FCS) and antibiotic/antimycotic reagents at 37° C. in humidity controlled incubator with 100% (v/v) air.
For the tests, MDA MB-468, MDA MB-231 and MDA MB-435 cell line were grown in 90% Leibovitz L-15 medium supplemented with 10% FCS. When confluent the cultures were washed 1× in HBSS and trypsinised in 0.25% trypsin/0.05% EDTA. The cell suspensions were counted with an automated cell counter (ZM-2 Coulter Counter) by adding 15 mL saline+0.2 ml of cell suspension. • Cells were resuspended to a number of:
The cells were plated into 48-well plates (1 cm^2 surface area) by adding 1 ml of cell suspension per well. • Cells were allowed to attach for 24 h, before the media was removed, monolayers washed. The test media was; growth media containing 0-1 μM adriamycin or 5-fluorouracil with or without the addition of 0-1 μM of HA (modal Mw 750,000).
The cells were exposed to the several combinations of HA and drugs for different times and at different concentrations (Table 3).
After the incubation and growth periods the cell monolayers were washed with HBSS and trypsinised in 0.25% trypsin/0.05% EDTA. The cell suspensions were counted with an automated cell counter (ZM-2 Coulter Counter) by adding 15 mL saline+0.2 ml of cell suspension. Results were expressed as % of no drug control which was calculated as: […]

[4] = tested on: MDA-MB 468 Breast cancer xenografts; assay: HA alone on breast cancer xenografts, metastasis, body mass and survival; type: in vivo; conditions: 12.5 mg/kg HA, three regimens; significant in 3/3 experiments
Method: To determine the effect of HA on tumor volume in vivo, 12.5 mg/kg of HA was administered on day 1 and 2 of a 7 day cycle for 6 cycles and 12.5 mg/kg on day 1 and 3 of 7 day cycle for 6 cycles (FIG. 9A) or 12.5 mg/kg on day 1 and 8 of 28 day cycle for 6 cycles (FIG. 9B). […] This anti-proliferative effect could be due to the degradation of the HA into apoptotic-inducing fragments and/or the microembolisation effect, which could result in tissue hypoxia and subsequent cell death.
The following table sets forth the results of the administration of HA on breast and colon cancer xenographs, metastasis, body mass and survival in vivo.

hyaluronan [HA]
organ mass toxicity [1]: did not result in any dramatic toxicity | body mass / well being versus 5-FU treatment group ([1]; HA as sole agent or chemosensitizer): did not loose weight, but maintained its body mass | non-lymphoid metastasis (new tumours near primary tumour) ([2]; 6-week study): significant reduction in non-lymphoid metastasis | tumour mass at the end of the 6 week study, compared with other groups ([2]; iv 12.5 mg/kg HA and/or 30 mg/kg 5-FU, 6 x 7 day cycles): significantly decreased the primary tumour mass; also recorded: reducing the primary tumour mass in comparison to the saline control | Cytotoxic effect of HA, change in cell number ([3]; HA exposure 30 min 100 nM): −12% | Cytotoxic effect of HA, change in cell number ([3]; HA exposure 30 min 500 nM): 0 | Cytotoxic effect of HA, change in cell number ([3]; HA exposure 1 h 100 nM): −4% | Cytotoxic effect of HA, change in cell number ([3]; HA exposure 24 h 100 nM): −12% | Cytotoxic effect of HA, change in cell number ([3]; HA exposure 3 days 100 nM): −22% | % T/C versus saline [4]: lower % T/C

— US20060178342A1, “Hyaluronan as a cytotoxic agent, drug pre-sensitizer and chemo-sensitizer in the treatment of disease” (priority 2001, published 2006)
